pEC50, pKi: −log10 of the molar value. Counter-ions that a name gives are not always drawn.
Key:
μ-receptor = μ-receptor (Homo sapiens (Human), UniProt P35372); experiment: Receptor binding, competitive displacement of [3H]DAMGO; conditions: 0.25 nM [3H]DAMGO, CHO cell membrane protein, 60 min at 25° C.
Protocol: The Ki (binding affinity) for μ-receptor was determined with a previously described method using a competitive displacement assay (Neumeyer et al., J. Med. Chem., v. 46, p. 5162-5170, 2003). Membrane protein from CHO (Chinese Hamster Ovarian) cells that stably expressed one type of the cloned human opioid receptor were incubated with 12 different concentrations of the compound in the presence of 0.25 nM [3H]DAMGO, 0.2 nM [3H]naltrindole or 1 nM [3H]U69,593 in a final volume of 1 mL of 50 mM Tris-HCl, pH 7.5 at 25° C. Incubation times of 60 min were used for [3H]DAMGO and [3H]U69,593. Because of a slower association of [3H]naltrindole with the receptor, a 3 h incubation was used with this radioligand. Samples incubated with [3H]naltrindole also contained 10 mM MgCl2 and 0.5 mM phenylmethylsulfonyl fluoride. Nonspecific binding was measured by inclusion of 10 μM naloxone. The binding was terminated by filtering the samples through Schleicher & Schuell No. 32 glass fiber filters using a Brandel 48-well cell harvester. The filters were subsequently washed three times with 3 mL of cold 50 mM Tris-HCl, pH 7.5, and were counted in 2 mL Ecoscint A scintillation fluid. For [3H]naltrindole and [3H]U69,593 binding, the filters were soaked in 0.1% polyethylenimine for at least 60 min before use. IC50 values will be calculated by least squares fit to a logarithm-probit analysis. Ki values of unlabelled compounds were calculated from the equation Ki=(IC50)/1+S where S=(concentration of radioligand)/(Kd of radioligand) (Cheng and Prusoff, Biochemical Pharmacology, v. 22, p. 3099-3108, 1973).

human μ opioid receptor = human μ opioid receptor (Homo sapiens (Human), UniProt P35372); experiment: Functional activity ([35S]GTPγS binding); type: biochemical; conditions: [35S]GTPγS 0.080 nM, CHO cell membranes, 60 min at 30° C., filtration
Protocol: The [^35S]GTPγS assay measures the functional properties of a compound by quantifying the level of G-protein activation following agonist binding in studies using stably transfected cells, and is considered to be a measure of the efficacy of a compound. Membranes from CHO (Chinese Hamster Ovary) cells that stably expressed one type of the cloned human opioid receptor human were used in the experiments. In a final volume of 0.5 mL, 12 different concentrations of each test compound were incubated with 7.5 μg of CHO cell membranes that stably expressed the human p opioid receptor. The assay buffer consisted of 50 mM Tris-HCl, pH 7.4, 3 mM MgCl2, 0.2 mM EGTA, 3 μM GDP, and 100 mM NaCl. The final concentration of [35S]GTPγS was 0.080 nM. Nonspecific binding was measured by inclusion of 10 μM GTPγS. Binding was initiated by the addition of the membranes. After an incubation of 60 min at 30° C., the samples were filtered through Schleicher & Schuell No. 32 glass fiber filters. The filters were washed three times with cold 50 mM Tris-HCl, pH 7.5, and were counted in 2 mL of Ecoscint scintillation fluid.

Structure (SMILES): COC1(c2cccc(C(N)=O)c2)C2CCCC1CN(CC1CCS(=O)(=O)CC1)C2 [Compound 1, 3-((1R,5S,9r)-3-((1,1-dioxidotetrahydro-2H-thiopyran-4-yl)methyl)-9-methoxy-3-azabicyclo[3.3.1]nonan-9-yl)benzamide hydrochloride]
- pKi (μ-receptor): 8.30 to 9.00
- pEC50 (human μ opioid receptor): < 7.12

Structure (SMILES): COC1(c2ccnc(C(N)=O)c2)C2CCCC1CN([C@H]1C[C@@H](F)C1)C2 (stereo partly drawn) [Compound 2, 4-((1R,5S,9R)-3-((1s,3S)-3-fluorocyclobutyl)-9-methoxy-3-azabicyclo[3.3.1]nonan-9-yl)picolinamide hydrochloride]
- pKi (μ-receptor): > 9.00
- pEC50 (human μ opioid receptor): 7.12 to 8.00

Structure (SMILES): COC1(c2cccc(C(N)=O)c2)C2CCCC1CN(C1CCC3(CC1)COC3)C2 [Compound 3, 3-((1R,5S,9r)-9-methoxy-3-(2-oxaspiro[3.5]nonan-7-yl)-3-azabicyclo[3.3.1]nonan-9-yl)benzamide (S)-2-hydroxysuccinate]
- pKi (μ-receptor): > 9.00
- pEC50 (human μ opioid receptor): > 8.00

Structure (SMILES): COC1(c2ccnc(C(N)=O)c2)C2CCCC1CN(C1(C)CC1)C2 [Compound 4, 4-((1R,5S,9r)-9-methoxy-3-(1-methylcyclopropyl)-3-azabicyclo[3.3.1]nonan-9-yl)picolinamide hydrochloride]
- pKi (μ-receptor): < 8.30
- pEC50 (human μ opioid receptor): < 7.12

Structure (SMILES): COC1(c2cccc(C(N)=O)c2)C2CCCC1CN(C1CC3(CCOCC3)C1)C2 [Compound 6, 3-((1R,5S,9r)-9-methoxy-3-(7-oxaspiro[3.5]nonan-2-yl)-3-azabicyclo[3.3.1]nonan-9-yl)benzamide hydrochloride]
- pKi (μ-receptor): > 9.00
- pEC50 (human μ opioid receptor): > 8.00

Structure (SMILES): COC1(c2ccnc(C(N)=O)c2)C2CCCC1CN(C1CCC(F)(F)CC1)C2 [Compound 7, 4-((1R,5S,9r)-3-(4,4-difluorocyclohexyl)-9-methoxy-3-azabicyclo[3.3.1]nonan-9-yl)picolinamide hydrochloride]
- pKi (μ-receptor): 8.30 to 9.00
- pEC50 (human μ opioid receptor): < 7.12

Structure (SMILES): COC1(c2cccc(C(N)=O)c2)C2CCCC1CN(C1CCC(F)(F)CC1)C2 [Compound 9, 3-((1R,5S,9r)-3-(4,4-difluorocyclohexyl)-9-methoxy-3-azabicyclo[3.3.1]nonan-9-yl)benzamide hydrochloride]
- pKi (μ-receptor): > 9.00
- pEC50 (human μ opioid receptor): 7.12 to 8.00

Structure (SMILES): COC1(c2ccnc(C(N)=O)c2)C2CCCC1CN(C1CC3CCC(C1)O3)C2 [Compound 10, 4-((1R,5S,9R)-3-((1R,3r,5S)-8-oxabicyclo[3.2.1]octan-3-yl)-9-methoxy-3-azabicyclo[3.3.1]nonan-9-yl)picolinamide hydrochloride]
- pKi (μ-receptor): < 8.30
- pEC50 (human μ opioid receptor): < 7.12

Structure (SMILES): COC1(c2cccc(C(N)=O)c2)C2CCCC1CN([C@H]1C[C@H]3C[C@H]3C1)C2 (stereo partly drawn) [Compound 11, 3-((1R,5S,9r)-3-(bicyclo[3.1.0]hexan-3-yl)-9-methoxy-3-azabicyclo[3.3.1]nonan-9-yl)benzamide hydrochloride]
- pKi (μ-receptor): > 9.00
- pEC50 (human μ opioid receptor): > 8.00

Structure (SMILES): COC1(c2ccnc(C(N)=O)c2)C2CCCC1CN(C1CC3(CCOCC3)C1)C2 [Compound 13, 4-((1R,5S,9r)-9-methoxy-3-(7-oxaspiro[3.5]nonan-2-yl)-3-azabicyclo[3.3.1]nonan-9-yl)picolinamide hydrochloride]
- pKi (μ-receptor): > 9.00
- pEC50 (human μ opioid receptor): > 8.00

Structure (SMILES): COC1(c2cccc(C(N)=O)c2)C2CCCC1CN([C@H]1C[C@@H]3[C@H](C1)C3(F)F)C2 (stereo partly drawn) [Compound 17, 3-((1R,5S,9R)-3-((1R,3r,5S)-6,6-difluorobicyclo[3.1.0]hexan-3-yl)-9-methoxy-3-azabicyclo[3.3.1]nonan-9-yl)benzamide hydrochloride]
- pKi (μ-receptor): > 9.00
- pEC50 (human μ opioid receptor): > 8.00

Structure (SMILES): COC1(c2ccnc(C(N)=O)c2)C2CCCC1CN([C@H]1C[C@@H]3[C@H](C1)C3(F)F)C2 (stereo partly drawn) [Compound 18, 4-((1R,5S,9R)-3-((1R,3r,5S)-6,6-difluorobicyclo[3.1.0]hexan-3-yl)-9-methoxy-3-azabicyclo[3.3.1]nonan-9-yl)picolinamide hydrochloride]
- pKi (μ-receptor): > 9.00
- pEC50 (human μ opioid receptor): > 8.00

Structure (SMILES): COC1(c2cccc(C(N)=O)c2)C2CCCC1CN(Cc1ccccc1)C2 [Compound 21, 3-((1R,5S,9r)-3-benzyl-9-methoxy-3-azabicyclo[3.3.1]nonan-9-yl)benzamide hydrochloride]
- pKi (μ-receptor): > 9.00
- pEC50 (human μ opioid receptor): > 8.00

Structure (SMILES): COC1(c2cccc(C(N)=O)c2)C2CCCC1CN(CCc1ccccc1)C2 [Compound 24, 3-((1R,5S,9r)-9-methoxy-3-phenethyl-3-azabicyclo[3.3.1]nonan-9-yl)benzamide hydrochloride]
- pKi (μ-receptor): > 9.00
- pEC50 (human μ opioid receptor): > 8.00

Structure (SMILES): COC1(c2cccc(C(N)=O)c2)C2CCCC1CN(CC1CCC1)C2 [Compound 26, 3-((1R,5S,9r)-3-(cyclobutylmethyl)-9-methoxy-3-azabicyclo[3.3.1]nonan-9-yl)benzamide hydrochloride]
- pKi (μ-receptor): > 9.00
- pEC50 (human μ opioid receptor): > 8.00

Structure (SMILES): CCCCN1CC2CCCC(C1)C2(OC)c1cccc(C(N)=O)c1 [Compound 29, 3-((1R,5S,9r)-3-butyl-9-methoxy-3-azabicyclo[3.3.1]nonan-9-yl)benzamide hydrochloride]
- pKi (μ-receptor): > 9.00
- pEC50 (human μ opioid receptor): > 8.00

Structure (SMILES): CCOC1(c2cccc(C(N)=O)c2)C2CCCC1CN(CC1CC1)C2 [Compound 30, 3-((1R,5S,9r)-3-(cyclopropylmethyl)-9-ethoxy-3-azabicyclo[3.3.1]nonan-9-yl)benzamide hydrochloride]
- pKi (μ-receptor): > 9.00
- pEC50 (human μ opioid receptor): > 8.00

Structure (SMILES): COC1(c2cccc(C(N)=O)c2)C2CCCC1CN(CCC(F)(F)F)C2 [Compound 34, 3-((1R,5S,9r)-9-methoxy-3-(3,3,3-trifluoropropyl)-3-azabicyclo[3.3.1]nonan-9-yl)benzamide hydrochloride]
- pKi (μ-receptor): > 9.00
- pEC50 (human μ opioid receptor): > 8.00

Structure (SMILES): COC1(c2cccc(C(N)=O)c2)C2CCCC1CNC2 [Compound 35, 3-((1R,5S,9r)-9-methoxy-3-azabicyclo[3.3.1]nonan-9-yl)benzamide hydrochloride]
- pKi (μ-receptor): > 9.00
- pEC50 (human μ opioid receptor): 7.12 to 8.00

Structure (SMILES): COC1(c2ccc(C(N)=O)s2)C2CCCC1CN(CC1CC1)C2 [Compound 36, 5-((1R,5S,9r)-3-(cyclopropylmethyl)-9-methoxy-3-azabicyclo[3.3.1]nonan-9-yl)thiophene-2-carboxamide hydrochloride]
- pKi (μ-receptor): > 9.00
- pEC50 (human μ opioid receptor): 7.12 to 8.00

Structure (SMILES): CN1CC2CCCC(C1)C2(OCC(F)(F)F)c1cccc(C(N)=O)c1 [Compound 37, 3-((1R,5S,9r)-3-methyl-9-(2,2,2-trifluoroethoxy)-3-azabicyclo[3.3.1]nonan-9-yl)benzamide hydrochloride]
- pKi (μ-receptor): 8.30 to 9.00
- pEC50 (human μ opioid receptor): 7.12 to 8.00

Structure (SMILES): COC1(c2cccc(C(N)=O)c2)C2CCCC1CN(C1CC1)C2 [Compound 38, 3-((1R,5S,9r)-3-cyclopropyl-9-methoxy-3-azabicyclo[3.3.1]nonan-9-yl)benzamide hydrochloride]
- pKi (μ-receptor): > 9.00
- pEC50 (human μ opioid receptor): 7.12 to 8.00

Structure (SMILES): COC1(c2cccc(C(N)=O)c2F)C2CCCC1CN(C)C2 [Compound 39, 2-fluoro-3-((1R,5S,9r)-9-methoxy-3-methyl-3-azabicyclo[3.3.1]nonan-9-yl)benzamide hydrochloride]
- pKi (μ-receptor): 8.30 to 9.00
- pEC50 (human μ opioid receptor): 7.12 to 8.00

Structure (SMILES): COC1(c2cccc(C(N)=O)c2)C2CCCC1CN(CC1(F)CC1)C2 [Compound 40, 3-((1R,5S,9r)-3-((1-fluorocyclopropyl)methyl)-9-methoxy-3-azabicyclo[3.3.1]nonan-9-yl)benzamide hydrochloride]
- pKi (μ-receptor): > 9.00
- pEC50 (human μ opioid receptor): 7.12 to 8.00

Structure (SMILES): COC1(c2cccc(C(N)=O)c2)C2CCCC1CN(C1CCC1)C2 [Compound 42, 3-((1R,5S,9r)-3-cyclobutyl-9-methoxy-3-azabicyclo[3.3.1]nonan-9-yl)benzamide hydrochloride]
- pKi (μ-receptor): > 9.00
- pEC50 (human μ opioid receptor): > 8.00

Structure (SMILES): COC1(c2cccc(C(N)=O)c2)C2CCCC1CN(C1CCOCC1)C2 [Compound 45, 3-((1R,5S,9r)-9-methoxy-3-(tetrahydro-2H-pyran-4-yl)-3-azabicyclo[3.3.1]nonan-9-yl)benzamide hydrochloride]
- pKi (μ-receptor): 8.30 to 9.00
- pEC50 (human μ opioid receptor): 7.12 to 8.00

Structure (SMILES): CCCN1CC2CCCC(C1)C2(OC)c1cccc(C(N)=O)c1 [Compound 47, 3-((1R,5S,9r)-9-methoxy-3-propyl-3-azabicyclo[3.3.1]nonan-9-yl)benzamide hydrochloride]
- pKi (μ-receptor): > 9.00
- pEC50 (human μ opioid receptor): > 8.00
